Results reported in patent US20090068295A1, “Composition for treating cancer and method of using the same” (Chang Gung University, priority 2007, published 2009).

Assays:
P53 protein [1] = experiment: P53 protein expression of Sk-Hep-1; type: cell-based, human; settings: Sk-Hep-1 cells, compared with control; concentrations not given
Excerpt: (§1) Referring to FIG. 5A and FIG. 5B.

[2] = system: human liver cancer cell line Sk-Hep-1; experiment: viability of human liver cancer cell line Sk-Hep-1 after treatment; settings: for viability of Sk-Hep-1: after 48 hours
P53 protein [3] = experiment: P53 protein expression of Hep-G2; type: cell-based, human; settings: Hep-G2 cells, compared with control; concentrations not given
Excerpt: as §1
However, treat Hep-G2 with EGCG can reduce the expression of P53 protein to 0.74-fold.

[4] = system: human leukemia cell line Jurkat T; experiment: viability of human leukemia cell line Jurkat T; type: cell-based; settings: 5-FU alone
Excerpt: (§2) Please refer to FIG. 6A and FIG. 6B.

[5] = system: human liver cancer cell line Sk-Hep-1; experiment: effect on the cell cycle of Sk-Hep-1; type: cell-based
Procedure: (§3) Please refer to FIG. 4A and FIG. 4B. […] Please further refer to the following Table 1 and Table 2.
As shown in FIG. 4A and Table 1, in the cell cycle of Sk-Hep-1, the percentage of G1, S, and G2 phases are about 43.04%, 30.9%, and 23.75% respectively. When treat the Sk-Hep-1 cells with 10 μM of 5-FU alone, the percentage of G1, S, and G2 phases are about 51.51%, 31.19%, and 17.3% respectively. From the comparison with the control, 5-FU can increase the percentage of G1 phase and reduce the percentage of G2 phase. […] From the results, 5-FU combined with EGCG can effectively interrupt the cell cycle of Sk-Hep-1 cells at G1 phase, and prevent the cell cycle from entering S phase.

[6] = system: human liver cancer cell line Hep-G2; experiment: effect on the cell cycle of Hep-G2; type: cell-based
Procedure: as §3
Furthermore, as shown in FIG. 4B and Table 2, in the cell cycle of Hep-G2, the percentage of G1, S, and G2 phases are about 52.7%, 26.54%, and 20.76% respectively. When treat the Hep-G2 cells with 10 μM of 5-FU alone, the percentage of G1, S, and G2 phases are about 47.04%, 42.68%, and 10.29% respectively. From the comparison with the control, 5-FU can increase the percentage of S phase and reduce the percentage of G1 phase and G2 phase. […] From the results, 5-FU combined with EGCG can effectively interrupt the cell cycle of Hep-G2 cells at G1 phase, and prevent the cell cycle from entering S phase and G2 phase.

[7] = system: human leukemia cell line K562; experiment: viability of human leukemia cell line K562; type: cell-based; settings: 5-FU alone
Excerpt: as §2

`O=c1[nH]cc(F)c(=O)[nH]1` [5-FU, 5-Fluorouracil] was tested, and the “expression of P53 protein” value (P53 protein [1]) was 1.64 fold, the viability at 10 µM ([2]; Homo sapiens, SK-HEP1, 48 h, read-out: viability of Sk-Hep-1) was roughly 75% and the “expression of P53 protein” value (P53 protein [3]) was 1.64 fold. For the same molecule, the “viability of Jurkat T” value [4] was “about 80%”, the “Cell cycle phase G2 (%)” value ([5]; 5-FU, 10 μM) was 17.30 ± 0.3% and the “Cell cycle phase S (%)” value ([5]; 5-FU, 10 μM) was 31.19 ± 1.4%. For the same molecule, the “Cell cycle phase G2 (%)” value ([6]; 5-FU, 10 μM) was 10.29 ± 2.5%, the “Cell cycle phase S (%)” value ([6]; 5-FU, 10 μM) was 42.68 ± 2.4% and the “effect on the viability of K562” value [7] was “almost no effect”.
In the case of `O=C(O[C@@H]1Cc2c(O)cc(O)cc2O[C@@H]1c1cc(O)c(O)c(O)c1)c1cc(O)c(O)c(O)c1` [EGCG, Epigallocatechin gallate], the “expression of P53 protein” value (P53 protein [1]) is reported as 1.8 fold, the “viability of Sk-Hep-1” value ([2]; 50 μM of EGCG) is reported as “about 90%” and the “viability of Sk-Hep-1” value ([2]; 100 μM of EGCG) is reported as roughly 80%. The “viability of Sk-Hep-1” value ([2]; 250 μM of EGCG) was roughly 60%, the “viability of Sk-Hep-1” value ([2]; 500 μM of EGCG) was roughly 50% and the “expression of P53 protein” value (P53 protein [3]) was 0.74 fold. The “Cell cycle phase G1 (%)” value ([5]; EGCG, 50 μM) was 54.41 ± 5.4%, the “Cell cycle phase G2 (%)” value ([5]; EGCG, 50 μM) was 22.09 ± 2.2% and the “Cell cycle phase S (%)” value ([5]; EGCG, 50 μM) was 23.51 ± 3.2%. For the same molecule, the “Cell cycle phase G1 (%)” value ([5]; EGCG, 100 μM) was 56.60 ± 3.8%, the “Cell cycle phase G2 (%)” value ([5]; EGCG, 100 μM) was 19.5 ± 0.7% and the “Cell cycle phase S (%)” value ([5]; EGCG, 100 μM) was 23.90 ± 3.1%. The “Cell cycle phase G1 (%)” value ([5]; EGCG, 250 μM) was 53.92 ± 1.9%, the “Cell cycle phase G2 (%)” value ([5]; EGCG, 250 μM) was 17.55 ± 1.7% and the “Cell cycle phase S (%)” value ([5]; EGCG, 250 μM) was 28.53 ± 2.3%. For the same molecule, the “Cell cycle phase G1 (%)” value ([6]; EGCG, 50 μM) was 62.15 ± 2.4%, the “Cell cycle phase G2 (%)” value ([6]; EGCG, 50 μM) was 9.33 ± 4.7% and the “Cell cycle phase S (%)” value ([6]; EGCG, 50 μM) was 28.52 ± 4.3%. The “Cell cycle phase G1 (%)” value ([6]; EGCG, 100 μM) was 62.23 ± 5.7%, the “Cell cycle phase G2 (%)” value ([6]; EGCG, 100 μM) was 11.51 ± 4.1% and the “Cell cycle phase S (%)” value ([6]; EGCG, 100 μM) was 26.26 ± 3.5%. The “Cell cycle phase G1 (%)” value ([6]; EGCG, 250 μM) was 61.83 ± 1.6%, the “Cell cycle phase G2 (%)” value ([6]; EGCG, 250 μM) was 9.63 ± 1.7% and the “Cell cycle phase S (%)” value ([6]; EGCG, 250 μM) was 28.53 ± 1.3%.
